According to PubChem BioAssay (NCI):
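Growth conditions: 96-well plates. Treatment: test compound, 48 hours, 5 concentrations. Analysis: linear interpolation between bracketing concentrations; unreached endpoints set to highest concentration. TGI: concentration producing complete growth inhibition.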

How the values were obtained:
Experiment in all cases: NCI anticancer screen, dose series, 48 h
UACC-62 melanoma = system: UACC-62 melanoma
HS 578T breast = system: HS 578T breast
SK-MEL-5 melanoma = system: SK-MEL-5 melanoma
HT29 colon = system: HT29 colon
LOX IMVI melanoma = system: LOX IMVI melanoma
OVCAR-5 ovarian = system: OVCAR-5 ovarian
HCT-116 colon = system: HCT-116 colon
TK-10 renal = system: TK-10 renal
HCT-15 colon = system: HCT-15 colon
CCRF-CEM leukemia = system: CCRF-CEM leukemia
NCI-H23 lung = system: NCI-H23 lung
NCI-H460 lung = system: NCI-H460 lung
SK-MEL-28 melanoma = system: SK-MEL-28 melanoma
OVCAR-3 ovarian = system: OVCAR-3 ovarian
PC-3 prostate = system: PC-3 prostate
IGROV1 ovarian = system: IGROV1 ovarian
SN12C renal = system: SN12C renal
U251 CNS = system: U251 CNS
OVCAR-8 ovarian = system: OVCAR-8 ovarian
M14 melanoma = system: M14 melanoma
ACHN renal = system: ACHN renal
NCI-H226 lung = system: NCI-H226 lung
NCI/ADR-RES ovarian = system: NCI/ADR-RES ovarian
SW-620 colon = system: SW-620 colon
SK-MEL-2 melanoma = system: SK-MEL-2 melanoma
MDA-MB-435 = system: MDA-MB-435
NCI-H522 lung = system: NCI-H522 lung
SNB-19 CNS = system: SNB-19 CNS
SNB-75 CNS = system: SNB-75 CNS
COLO 205 colon = system: COLO 205 colon
MOLT-4 leukemia = system: MOLT-4 leukemia
OVCAR-4 ovarian = system: OVCAR-4 ovarian
HCC-2998 colon = system: HCC-2998 colon
A498 renal = system: A498 renal
HOP-62 NSCLC = system: HOP-62 NSCLC
T-47D breast = system: T-47D breast
SF-268 CNS = system: SF-268 CNS
RXF 393 renal = system: RXF 393 renal
786-0 renal = system: 786-0 renal
HL-60(TB) leukemia = system: HL-60(TB) leukemia
K-562 leukemia = system: K-562 leukemia
MDA-N = system: MDA-N
DU-145 prostate = system: DU-145 prostate
SF-539 CNS = system: SF-539 CNS
MDA-MB-231 breast = system: MDA-MB-231 breast
SK-OV-3 ovarian = system: SK-OV-3 ovarian
EKVX NSCLC = system: EKVX NSCLC
CAKI-1 renal = system: CAKI-1 renal
UACC-257 melanoma = system: UACC-257 melanoma
UO-31 renal = system: UO-31 renal
RPMI-8226 leukemia = system: RPMI-8226 leukemia
KM12 colon = system: KM12 colon
SF-295 CNS = system: SF-295 CNS
A549 NSCLC = system: A549 NSCLC
SR leukemia = system: SR leukemia
MALME-3M melanoma = system: MALME-3M melanoma
HOP-92 NSCLC = system: HOP-92 NSCLC
MCF7 breast = system: MCF7 breast

Measured: TGI

CC(=O)CC1(OC(=O)C2C(C=C(C)C)C2(C)C)C(=O)Nc2ccccc21 (centres undefined)
> 100 µM: UACC-62 melanoma | HS 578T breast | SK-MEL-5 melanoma | HT29 colon | LOX IMVI melanoma | OVCAR-5 ovarian | HCT-116 colon | TK-10 renal | HCT-15 colon | CCRF-CEM leukemia | NCI-H23 lung | NCI-H460 lung | SK-MEL-28 melanoma | OVCAR-3 ovarian | PC-3 prostate | IGROV1 ovarian | SN12C renal | U251 CNS | OVCAR-8 ovarian | M14 melanoma | ACHN renal | NCI-H226 lung | NCI/ADR-RES ovarian | SW-620 colon | SK-MEL-2 melanoma | MDA-MB-435 | NCI-H522 lung | SNB-19 CNS | SNB-75 CNS | COLO 205 colon | MOLT-4 leukemia | OVCAR-4 ovarian | HCC-2998 colon | A498 renal | HOP-62 NSCLC | T-47D breast | SF-268 CNS | RXF 393 renal | 786-0 renal | HL-60(TB) leukemia | K-562 leukemia | MDA-N | DU-145 prostate | SF-539 CNS | MDA-MB-231 breast | SK-OV-3 ovarian | EKVX NSCLC | CAKI-1 renal | UACC-257 melanoma | UO-31 renal | RPMI-8226 leukemia | KM12 colon | SF-295 CNS | A549 NSCLC | SR leukemia | MALME-3M melanoma

COP(C)(=O)C1=CCN(C(=O)OCC[Si](C)(C)C)CC1 (centres undefined)
> 100 µM: UACC-62 melanoma | HS 578T breast | SK-MEL-5 melanoma | HT29 colon | LOX IMVI melanoma | OVCAR-5 ovarian | TK-10 renal | HCT-15 colon | CCRF-CEM leukemia | NCI-H23 lung | NCI-H460 lung | SK-MEL-28 melanoma | OVCAR-3 ovarian | PC-3 prostate | IGROV1 ovarian | U251 CNS | OVCAR-8 ovarian | M14 melanoma | ACHN renal | NCI-H226 lung | NCI/ADR-RES ovarian | SW-620 colon | SK-MEL-2 melanoma | MDA-MB-435 | NCI-H522 lung | SNB-19 CNS | SNB-75 CNS | COLO 205 colon | HOP-92 NSCLC | OVCAR-4 ovarian | HCC-2998 colon | A498 renal | HOP-62 NSCLC | T-47D breast | SF-268 CNS | RXF 393 renal | 786-0 renal | MDA-N | DU-145 prostate | MDA-MB-231 breast | SK-OV-3 ovarian | EKVX NSCLC | CAKI-1 renal | UACC-257 melanoma | UO-31 renal | MCF7 breast | RPMI-8226 leukemia | KM12 colon | SF-295 CNS | A549 NSCLC | MALME-3M melanoma

CCOC(=O)NC(Nc1ncn(C(NC(=O)OCC)(C(F)(F)F)C(F)(F)F)n1)(C(F)(F)F)C(F)(F)F
30.3 µM: UO-31 renal
> 100 µM: UACC-62 melanoma | HS 578T breast | SK-MEL-5 melanoma | HT29 colon | LOX IMVI melanoma | OVCAR-5 ovarian | HCT-116 colon | TK-10 renal | HCT-15 colon | CCRF-CEM leukemia | NCI-H23 lung | NCI-H460 lung | SK-MEL-28 melanoma | OVCAR-3 ovarian | PC-3 prostate | IGROV1 ovarian | SN12C renal | U251 CNS | OVCAR-8 ovarian | M14 melanoma | ACHN renal | NCI-H226 lung | NCI/ADR-RES ovarian | SW-620 colon | MDA-MB-435 | SNB-19 CNS | SNB-75 CNS | COLO 205 colon | MOLT-4 leukemia | HOP-92 NSCLC | OVCAR-4 ovarian | HCC-2998 colon | A498 renal | HOP-62 NSCLC | T-47D breast | SF-268 CNS | RXF 393 renal | 786-0 renal | HL-60(TB) leukemia | K-562 leukemia | MDA-N | DU-145 prostate | SF-539 CNS | MDA-MB-231 breast | SK-OV-3 ovarian | EKVX NSCLC | CAKI-1 renal | UACC-257 melanoma | MCF7 breast | RPMI-8226 leukemia | KM12 colon | SF-295 CNS | A549 NSCLC | SR leukemia | MALME-3M melanoma

CC(=O)c1sc2c(c1OC(=O)c1ccc(Cl)cc1Cl)c(=O)n(-c1ccccc1)c(=S)n2-c1ccccc1
47.1 µM: MCF7 breast
13.7 µM: PC-3 prostate | SF-268 CNS
22.2 µM: HCC-2998 colon
16.7 µM: HOP-62 NSCLC
39 µM: OVCAR-3 ovarian
4.19 µM: SNB-75 CNS
20.2 µM: NCI/ADR-RES ovarian
> 100 µM: DU-145 prostate | SR leukemia
14.2 µM: SNB-19 CNS
0.841 µM: MALME-3M melanoma
5.21 µM: ACHN renal
3.01 µM: HT29 colon
7.77 µM: SK-OV-3 ovarian
25.7 µM: CAKI-1 renal
27 µM: KM12 colon
8.96 µM: OVCAR-5 ovarian
15.1 µM: NCI-H522 lung
4.99 µM: CCRF-CEM leukemia
1.19 µM: LOX IMVI melanoma
5.73 µM: OVCAR-8 ovarian
16.5 µM: HOP-92 NSCLC
25.6 µM: U251 CNS
49.7 µM: EKVX NSCLC
2.53 µM: NCI-H226 lung
6.51 µM: SF-295 CNS
54 µM: OVCAR-4 ovarian
29.6 µM: 786-0 renal
31.9 µM: MDA-MB-435
14.3 µM: NCI-H460 lung
4.48 µM: UO-31 renal
36.1 µM: IGROV1 ovarian
11.2 µM: HCT-15 colon
82.3 µM: T-47D breast
48.2 µM: SW-620 colon
0.64 µM: RPMI-8226 leukemia
20 µM: MDA-N
35.3 µM: NCI-H23 lung
0.908 µM: SF-539 CNS
30 µM: UACC-257 melanoma
18.9 µM: HL-60(TB) leukemia
37.5 µM: HCT-116 colon
29.2 µM: UACC-62 melanoma
1.41 µM: SK-MEL-2 melanoma
7.17 µM: SK-MEL-5 melanoma
46.1 µM: K-562 leukemia
> 48.1 µM: SK-MEL-28 melanoma
11.7 µM: MDA-MB-231 breast
15 µM: COLO 205 colon
2.35 µM: M14 melanoma | MOLT-4 leukemia
4.35 µM: SN12C renal
1.4 µM: HS 578T breast | A498 renal
58.2 µM: TK-10 renal
> 90 µM: A549 NSCLC

O=C(/C=C/c1ccsc1)c1ccc(Cl)cc1
49.8 µM: HL-60(TB) leukemia
53.3 µM: CCRF-CEM leukemia
47.8 µM: LOX IMVI melanoma
64.8 µM: RPMI-8226 leukemia
43.7 µM: MOLT-4 leukemia | SR leukemia
95.7 µM: K-562 leukemia
95.3 µM: MALME-3M melanoma
> 100 µM: UACC-62 melanoma | HS 578T breast | SK-MEL-5 melanoma | HT29 colon | OVCAR-5 ovarian | HCT-116 colon | TK-10 renal | HCT-15 colon | NCI-H23 lung | NCI-H460 lung | SK-MEL-28 melanoma | PC-3 prostate | IGROV1 ovarian | SN12C renal | U251 CNS | OVCAR-8 ovarian | M14 melanoma | ACHN renal | NCI-H226 lung | NCI/ADR-RES ovarian | SW-620 colon | SK-MEL-2 melanoma | MDA-MB-435 | SNB-19 CNS | SNB-75 CNS | COLO 205 colon | OVCAR-4 ovarian | HCC-2998 colon | A498 renal | HOP-62 NSCLC | T-47D breast | SF-268 CNS | 786-0 renal | MDA-N | DU-145 prostate | SF-539 CNS | MDA-MB-231 breast | SK-OV-3 ovarian | EKVX NSCLC | CAKI-1 renal | UACC-257 melanoma | UO-31 renal | MCF7 breast | KM12 colon | SF-295 CNS | A549 NSCLC
